Results as given in patent US10272120B2, “Synergistic composition comprising propolis and carnosic acid for use in the prevention and treatment of candidiasis” (priority 2015, dated 2019).
Converted amounts (≈) assume the structure as drawn.

Tests used:
parental strain SC5314 [1] = experiment: Inhibition kinetics / synergy assay, liquid medium and colony formation on plate; type: cell-based, Candida albicans; conditions: carnosic acid 50 μg/ml, propolis 3 200 μg/ml
Procedure: FIG. 8. (A) Measurement of the kinetic growth in the parental strain SC5314. With regard to previous assays, the following modifications were used: (i) Reduction of the concentration of carnosic acid to 50 μg/ml, maintaining that of the propolis 3 (PP) at (200 μg/ml), in order to better monitor its effect on cell viability. […] (B) Assay of colony formation on plate.
Then, in strain SC5314, as it is a reference lineage, new experiments simultaneously measuring the kinetics of inhibition of cell viability at sub-inhibitory concentrations of the carnosic acid (up to 50 μg/ml) and propolis 3 (200 μg/ml) were conducted together with the synergy assays between the two. The tested aliquots come from a single initial exponential culture and, therefore, the physiological state of the cells is identical.

SC5314 strain = experiment: Cell morphology by optical microscopy; type: cell-based, Candida albicans
Description: FIG. 5. Optical micrographs (100×) where it can be seen how the treatment with increasing doses of carnosic acid caused visible alterations in the cellular morphology, resulting in cells with a more swollen and deformed aspect, with increased birefringence and the apparent loss of ability to transition dimorphically to mycelial structures (hyphae).
FIG. 6. Optical micrographs (40×) taken in order to provide better visual field with higher cell density, using the same cultures as in FIG. 5. The presence of swollen cells is very significant in the image, with a carnosic acid concentration of 100 μg/ml.

parental strain SC5314 [2] = experiment: MIC determination; type: cell-based; conditions: Candida albicans
C. albicans strain CAI-4 = experiment: Viability assay in liquid YPD medium and colony formation on solid YPD; type: cell-based, Candida albicans; conditions: concentrations of 200 y 2000 μg/ml
Procedure: FIG. 1. Viability assay on liquid YPD medium (A) and colony formation on solid YPD medium (B) on C. albicans strain CAI-4 to different concentrations of carnosic acid, propolis 2 and 3. It started from a preinocolum culture incubated overnight at 28° C.; the next day refreshed in YPD medium to a D.O600 nm=0.3. The culture was allowed to grow to D.O600 nm=0.6 at 37° C., moment at which the compounds, object of the study, are added for one hour at the same temperature. Additionally, a positive control of antifungal activity with amphotericin B was included under the same conditions.
(§1) Assays were carried out in liquid YPD medium (1% yeast extract, 2% peptone and 2% glucose) at 37° C. Initially the C. albicans strain CAI-4 was used, but as it presented growth problems during the calculation of the MIC, it was replaced by its parental (SC5314, wild type), widely used in the laboratory. The procedure consisted of applying different concentrations of carnosic acid and propolis (one hour, unless other times are indicated) on exponential cultures of C. albicans grown in YPD. The percentage of cell viability was determined by counting the number of viable cells in the solid YPD medium after incubation at 37° C. for 24-48 hours (FIG. 1).

CAI-4 = experiment: MIC determination; type: cell-based; conditions: Candida albicans; strain CAI-4
[3] = system: C. albicans strain SC5314; experiment: Yeast-hyphae dimorphic transition induced by human serum; type: cell-based, Candida albicans; conditions: YPD plus human serum at 10%, 37° C., different concentrations
Procedure: FIG. 9. Effect of the addition of carnosic acid on the percentage of yeast-hyphae dimorphic transition in C. albicans induced by human serum at 37° C. Exponential cultures of strain SC5314 were centrifuged and resuspended in fresh YPD medium preheated at 37° C. Identical samples were treated with carnosic acid at the indicated concentrations, using an untreated sample and a sample maintained at 28° C. as controls. The percentage of germ tubes emission (first stage of the formation of hyphae) was calculated by direct microscopic count with a hemocytometer.
FIG. 10. Micrographs illustrating the effect of carnosic acid on the dimorphism of C. albicans. In the control assay with the lowest concentration of carnosic acid, a high percentage of filamentation (grouped hyphae forming a mycelium) which decreased proportionally with increasing dose of the latter, was observed.
These assays are also complemented with the evaluation of the influence on the morphology (dimorphism) of C. albicans. In FIGS. 9 and 10, the effect of the carnosic acid on the dimorphic transition of the strain SC5314 of C. albicans was explored, given that the yeast-mycelium dimorphic transition is considered to be a factor of virulence in this opportunistic pathogen. To do this, an “overnight” culture was […] to a low optical density (0.1) and left to grow to 0.3 at 37° C. […]

[4] = system: C. albicans yeast (blastoconides) CAI-4; experiment: Cell morphology by optical microscopy (Nomarsky); type: cell-based, Candida albicans
Procedure: FIG. 4. Inspection of the cell morphology by optical microscopy, using the interference contrast of “Nomarsky” on C. albicans yeast (blastoconides) CAI-4, treated with: propolis 3 (200 μg/ml), carnosic acid (100 μg/ml) and the combination of both compounds.
As an essential tool in understanding the effectiveness of these compounds on C. albicans cell viability, detailed studies on the effects of their administration on the cell morphology of this opportunistic pathogen, visualized by optical microscopy, were performed (FIGS. 4, 5 and 6).

[5] = system: C. albicans standard strain SC5314; experiment: Viability assay in liquid medium and colony formation on solid YPD; type: cell-based, Candida albicans; conditions: various concentrations, exponential YPD liquid cultures
Description: FIG. 2. Viability assay in liquid medium of the C. albicans standard strain SC5314 to different concentrations of carnosic acid and propolis 1. As a positive control Amphotericin B was used. Due to the particular behaviour of the CAI-4 strain when carrying out MICs, it was decided to use the wild strain SC5314 ([…] parental), in order to validate the effect of the compounds of study on an international C. albicans reference strain. The assay followed the same procedure described in FIG. 1.
FIG. 3. Assay of macroscopic colony formation in solid YPD medium. The C. albicans standard strain SC5314 was used to the concentrations of carnosic acid and propolis 1 indicated. As a positive control Amphotericin B was used. For further details of methodology see FIG. 1.
as §1, with “The procedure consisted of applying different concentrations of carnosic acid and propolis (one hour, unless other times are indicated) on exponential cultures of C. albicans grown in YPD.” left out, “1). […]” for “1).”

SMILES: CC(C)c1cc2c(c(O)c1O)[C@@]1(C(=O)O)CCCC(C)(C)[C@@H]1CC2 [carnosic acid]
- antifungal action considered individually (parental strain SC5314 [1]): strong antifungal action
- growth on plate (FIG. 8) (parental strain SC5314 [1]; combination read at one hour): growth is visible
- cell morphology (SC5314 strain; 100 μg/ml of carnosic acid, Nomarsky contrast): growing swelling
- cells seen in micrograph (40×) (SC5314 strain; 500 μg/ml): small number of cells
- cell morphology (SC5314 strain; increasing concentration of carnosic acid): swelling and deformation of the yeast cells
- MIC (parental strain SC5314 [2]): 250 µg/mL (≈ 752 µM)
- antifungal effect (C. albicans strain CAI-4): strong antifungal effect
- MIC (CAI-4): 250 µg/mL (≈ 752 µM)
- filamentation (yeast-mycelium dimorphic transition) [3]: reduced the filamentation of C. albicans in a dose-dependent way
- effect on cell morphology ([4]; more significant after five hours of treatment): apparent cellular reduction of size (volume)
- cell morphology (FIG. 4 legend) ([4]; propolis 3 200 μg/ml, carnosic acid 100 μg/ml, and the combination): significant reduction in cell size
- cell viability [5]: significant decrease in cell viability
